Experimental findings from patent publication US20230056994A1, “NECROPTOSIS MODULATORS, SCREENING METHODS AND PHARMACEUTICAL COMPOSITIONS” (NEURALIS SA, priority 2019, published 2023) are described below.

Entries after “also recorded” stand apart in the source; their conditions may differ.

Assay [1] has as its system phosphorylation state of MLKL in MCF7 cells. The assay can be described thus: Western blot of phospho-MLKL (Ser358) in MCF7 cells, necroptosis induced by TNF-alpha and z-VAD-fmk. Particulars: then TNF a 10 ng/ml 20 hrs, z-VAD-fmk 10 μM, One-Way ANOVA. The class given is cell-based. Here is the method: (§1) MCF7 and HT29 cells were cultured in DMEM along with 10% FBS, 1% Penicillin-Streptomycin and 1% Glutamine. The cells were pre-treated with 0.1% DMSO or z-VAD-fmk (10 μM) to induce necroptosis (positive control). In order to evaluate the effect of candidate agents on the induced necroptosis, Necrostatin 1 (Nec-1 (10 μM)) or Estetrol (E4 (10^-7 M) was added to the cells for 1 hr and was further subjected to Tumor Necrosis Factor (TNF) a (10 ng/ml) treatment for 20 hrs. The cells were then washed, followed by isolation and quantification of the total protein. 20 μg of protein from each treatment group was used for SDS-PAGE separation (10% […] gel) and was then transferred to PVDF membrane via a transfer apparatus. Post transfer, the membranes were blocked with 5% milk and further washed with the wash buffer. The membranes were further incubated with anti-Phospho-MLKL (Ser358) Polyclonal Antibody; Cat No: PA5-105678 (Thermofisher Scientific) at a dilution of 1/1000. The membranes were then incubated with secondary antibody (anti-Rabbit IgG, HRP-linked antibody, Cell signaling, Cat No: 7074S) at a dilution of 1/1000 and visualized using Western Blot substrate (Western Lightning Plus-ECL, Perkin Elmer, NEL104001EA) as per manufacturer's protocols. The results are shown in FIGS. 6 and 7, respectively for MCF7 and HT29 cells.

Assay [2] concerns phosphorylation state of MLKL in HT29 cells. Description: Western blot of phospho-MLKL (Ser358) in HT29 cells, necroptosis induced by TNF-alpha and z-VAD-fmk. Particulars: then TNF a 10 ng/ml 20 hrs, z-VAD-fmk 10 μM, One-Way ANOVA. The class given is cell-based. Here is the method:
as §1
A general note: A western blot detects proteins with antibodies after separation by electrophoresis.

The mark [3] stands for this setting: E4 10^-7 M for 1 hr, listed as E4.
Where [4] appears, read: Nec-1 10 μM for 1 hr, listed as Nec 1.
The mark [5] stands for this setting: Nec-1 10 μM for 1 hr, listed as Necrostatin 1.

Regarding `C[C@]12CC[C@@H]3c4ccc(O)cc4CC[C@H]3[C@@H]1[C@@H](O)[C@@H](O)[C@@H]2O` [Estetrol], the “reduction of MLKL phosphorylation versus TNF-alpha + z-VAD-fmk induced cells” value was “decrease of phosphorylation of MLKL” in assay [1] (E4 10^-7 M for 1 hr), “statistically relevant (**p<0.01)” in assay [1] (setting [3]), “decrease of phosphorylation of MLKL” in assay [2] (E4 10^-7 M for 1 hr) and “statistically relevant (**p<0.01)” in assay [2] (setting [3]).

As to `CN1C(=O)C(Cc2c[nH]c3ccccc23)NC1=S` (centres unmarked) [Nec-1, Necrostatin-1], the “reduction of MLKL phosphorylation versus TNF-alpha + z-VAD-fmk induced cells” value in assay [1] (setting [4]) is “statistically significant (*p<0.05); also recorded: statistically relevant (*p<0.05)”; in assay [1] (setting [5]), “decrease of phosphorylation of MLKL”; in assay [2] (setting [4]), “statistically Non-Significant (NS)”; in assay [2] (setting [5]), “decrease of phosphorylation of MLKL”.
